{"source": "patent US7884103B2", "about": "(priority 2003, dated 2011)", "key": {"[1]": {"test_system": "Septoria nodorum (Glume blotch)", "test": "Septoria nodorum wheat leaf segment test, preventive fungicidal activity", "assay_type": "cell-based", "settings": "tested dose range 200 to 22 ppm, wheat leaf segments, assessed 4 dpi", "method": "Septoria nodorum (Glume blotch): Wheat leaf segments are placed on agar in a multiwell plate (24-well format) and sprayed with test solutions. After drying, the leaf disks are inoculated with a spore suspension of the fungus. After appropriate incubation the activity of a compound is assessed 4 dpi (days after inoculation) as preventive fungicidal activity. Within the tested dose range of 200 to 22 ppm the Compound No. 82 inhibited at least 80% of fungal growth."}, "[2]": {"test_system": "Plasmopara viticola on vines", "test": "Action against Plasmopara viticola on vines, residual-protective action (D-1a)", "assay_type": "in vivo", "settings": "vine seedlings sprayed 24 hours before infection, evaluated after 6 days, untreated plants attack 60-100%", "method": "(§1) Action Against Plasmopara Viticola on Vines\nA) Residual-Protective Action\nFungus infestation is evaluated after incubation for 6 days at 95-100% relative humidity and +20° C."}, "[3]": {"test_system": "Plasmopara viticola on vines", "test": "Action against Plasmopara viticola on vines, residual-curative action (D-1b)", "assay_type": "in vivo", "settings": "vine seedlings sprayed 24 hours after infection, evaluated 6 days after infection, untreated plants attack 60-100%", "method": "as §1\nb) Residual-Curative Action\nVine seedlings are infected at the 4- to 5-leaf stage with a sporangia suspension of the fungus. […] After the spray coating has dried, the treated plants are placed in the humidity chamber again. Fungus infestation is evaluated 6 days after infection."}}, "data": [{"smiles": "CCOc1ccc(OCC(C)(NS(=O)(=O)Cc2ccccc2)C(=O)OC)cc1", "note": "(stereo not shown) [compound 082, 3-(4-Ethoxy-phenoxy)-2-methyl-2-phenylmethanesulfonylamino-propionic Acid Methyl Ester]", "values": [{"measurement": "inhibition of fungal growth", "setting": "[1]", "result": "at least 80%"}]}, {"smiles": "CCOc1ccc(OCC(C)(NS(=O)(=O)Cc2ccccc2)C(=O)N(C)OC)cc1", "note": "(stereo not shown) [compound 083, 3-(4-Ethoxy-phenoxy)-N-methoxy-2,N-dimethyl-2-phenylmethanesulfonylamino-propionamide]", "values": [{"measurement": "inhibition at 200 ppm", "setting": "[2]", "result": "80 to 100", "unit": "%"}, {"measurement": "inhibition at 200 ppm", "setting": "[3]", "result": "80 to 100", "unit": "%"}]}, {"smiles": "C#CCNC(=O)C(C)(COc1ccc(OCC)cc1)NS(=O)(=O)Cc1ccccc1", "note": "(stereo not shown) [compound 087, 3-(4-Ethoxy-phenoxy)-2-methyl-2-phenylmethanesulfonylamino-N-prop-2-ynyl-propionamide]", "values": [{"measurement": "inhibition at 200 ppm", "setting": "[2]", "result": "80 to 100", "unit": "%"}, {"measurement": "inhibition at 200 ppm", "setting": "[3]", "result": "80 to 100", "unit": "%"}]}, {"smiles": "CC(COc1ccc(-n2cncn2)cc1)(NS(=O)(=O)Cc1ccccc1)C(=O)O", "note": "(stereo not shown) [compound 100, 2-Methyl-2-phenylmethanesulfonylamino-3-(4-[1,2,4]triazol-1-yl-phenoxy)-propionic Acid]", "values": [{"measurement": "inhibition at 200 ppm", "setting": "[2]", "result": "80 to 100", "unit": "%"}, {"measurement": "inhibition at 200 ppm", "setting": "[3]", "result": "80 to 100", "unit": "%"}]}]}
